Literature values, collected in publication PMC4474874, “Effect of JAK Inhibitors on Release of CXCL9, CXCL10 and CXCL11 from Human Airway Epithelial Cells” (PLoS ONE, 2015).
Read-outs that look alike come from different tables or passages of the source.

Columns and labels:
[1] = test system: AKT; set-up: method as in PMID 18094329; conditions: inactive or IC50 >30μM; read-out: IC50 against AKT; cited from earlier work
[2] = test system: JAK/JAK3; set-up: method as in PMID 18094329; conditions: cellular assay; cited from earlier work
[3] = test system: chronic lymphocytic leukaemia cells; set-up: method as in PMID 20716767; conditions: cited from earlier work
[4] = test system: TrkA; set-up: method as in PMID 18094329; conditions: inactive or IC50 >30μM; read-out: IC50 against TrkA; cited from earlier work
[5] = test system: MASK; set-up: method as in PMID 18094329; conditions: inactive or IC50 >30μM; read-out: IC50 against MASK; cited from earlier work
[6] = test system: AuroraA; set-up: method as in PMID 18094329; conditions: inactive or IC50 >30μM; read-out: IC50 against AuroraA; cited from earlier work
[7] = test system: PKA; set-up: method as in PMID 18094329; conditions: at concentrations >5μM; cited from earlier work
[8] = test system: MAPKAP-K2; set-up: method as in PMID 18094329; conditions: inactive or IC50 >30μM; read-out: IC50 against MAPKAP-K2; cited from earlier work
[9] = test system: FGFR1; set-up: method as in PMID 18094329; conditions: inactive or IC50 >30μM; read-out: IC50 against FGFR1; cited from earlier work
[10] = test system: ROCK1; set-up: method as in PMID 18094329; conditions: inactive or IC50 >30μM; read-out: IC50 against ROCK1; cited from earlier work
[11] = test system: TYK2; set-up: method as in Coe et al., 25; conditions: ref Coe et al., 25, cited from earlier work
[12] = test system: MAP4K4; set-up: method as in Coe et al., 25; conditions: ATP at the Km; ref Coe et al., 25; cited from earlier work
[13] = test system: MLK1; set-up: method as in Coe et al., 25; conditions: ATP at the Km; ref Coe et al., 25; cited from earlier work
[14] = test system: JAK1; set-up: method as in Coe et al., 25; conditions: ref Coe et al., 25, cited from earlier work
[15] = test system: GSK3β; set-up: method as in Coe et al., 25; conditions: ATP at the Km; ref Coe et al., 25; cited from earlier work
[16] = test system: TAOK2; set-up: method as in Coe et al., 25; conditions: ATP at the Km; ref Coe et al., 25; cited from earlier work
[17] = test system: JAK2; set-up: method as in Coe et al., 25; conditions: ref Coe et al., 25, cited from earlier work

C[C@@H]1CCN(C(=O)N2CCCC2)C[C@@H]1N(C)c1ncnc2[nH]ccc12 [PF956980]
IC50 [1]: > 30 µM
IC50 [2]: 0.022 µM
concentration effective against IL-4-induced cytotoxic resistance [3]: ~ 0.3 μM
IC50 [4]: > 30 µM
IC50 [5]: > 30 µM
IC50 [6]: > 30 µM
effect against PKA [7]: modest effects
IC50 [8]: > 30 µM
IC50 [9]: > 30 µM
IC50 [10]: > 30 µM

CCc1cc(O)ccc1-c1ccc2c(-c3nc4ccccc4[nH]3)n[nH]c2c1 [PF1367550, 4-(3-(1H-benzo[d]imidazol-2-yl)-1H-indazol-6-yl)-3-ethylphenol]
IC50 ([11]; 1mM ATP, read-out: IC50 TYK2 1 mM): 0.0084 µM
IC50 ([11]; ATP at the Km, read-out: IC50 TYK2 Km): 0.0008 µM
IC50 [12]: 0.06 µM
IC50 [13]: 0.054 µM
IC50 ([14]; 1mM ATP, read-out: IC50 JAK1 1 mM): 0.0004 µM
IC50 ([14]; ATP at the Km, read-out: IC50 JAK1 Km): 0.0008 µM
IC50 [15]: 0.617 µM
IC50 [16]: 0.781 µM
IC50 ([17]; 1mM ATP, read-out: IC50 JAK2 1 mM): 0.0013 µM
IC50 ([17]; ATP at the Km, read-out: IC50 JAK2 Km): 0.001 µM
